Read-outs that look alike come from different tables or passages of the source.
System: MDD patients carrying the indicated biomarkers
Settings: for HAMD-17 change, Effect / HAMD-28 change, Effect: + SSRI
Method: Folate levels are classified as either low (<=2.5 ng/ml) or normal; and homocysteine levels as either normal or elevated (>=[…]). The presence or absence of at least one […] allele for the MTHFR gene are entered as a dichotomous variable (present or absent). […] Using folate as an example predicator, the presence or absence of a low serum-folate level along with treatment assignment can be entered in a 2×2, factorial ANOVA, using depression improvement scores (baseline minus endpoint HAM-D-17 scores) as the dependant variable. […] Similar analyses (i.e. separate 2×2 ANOVA's) can be performed substituting the presence of low folate levels for the presence of other predictors as described herein. Similarly, the effect of other predictors can be indicated by the interaction term representing the potential modulating influence of those variables.
The efficacy effect is determined by measuring the mean change in the HAMD-17 score and HAMD-28 score by the end of Phase I and Phase II, as compared to the baseline.

[1] = A + B: BMI > 30 & LOW SAM/SAH RATIO, N = 13
[2] = A + C: BMI > 30 & HIGH 4-HNE, N = 12
[3] = A + D: BMI > 30 & MTHFR 677 CT/TT, N = 9
[4] = A + E + F: BMI > 30 & MTR 2756 AG/GG & MTRR 66 AG/GG, N = 4
[5] = A + E: BMI > 30 & MTR 2756 AG/GG, N = 5
[6] = B + C: LOW SAM/SAH RATIO & HIGH 4-HNE, N = 11
[7] = B + E + F: LOW SAM/SAH RATIO & MTR 2756 AG/GG & MTRR 66 AG/GG, N = 5
[8] = B + E: LOW SAM/SAH RATIO & MTR 2756 AG/GG, N = 6
[9] = B + F: LOW SAM/SAH RATIO & MTRR 66 AG/GG, N = 11
[10] = C + D: HIGH 4-HNE & MTHFR 677 CT/TT, N = 8
[11] = C + E + F: HIGH 4-HNE & MTR 2756 AG/GG & MTRR 66 AG/GG, N = 4
[12] = C + E: HIGH 4-HNE & MTR 2756 AG/GG, N = 9
[13] = C + F: HIGH 4-HNE & MTRR 66 AG/GG, N = 15
[14] = D + E: MTHFR 677 CT/TT & MTR 2756 AG/GG, N = 4
[15] = E + F: MTR 2756 AG/GG & MTRR 66 AG/GG, N = 8
[16] = MTHFR 677 CC and MTR 2756 AA, Phase I
[17] = MTHFR 677 CC and MTR 2756 AA, Phase II
[18] = MTHFR 677 CC and MTR 2756 AA, Pooled phases
[19] = MTHFR 677 CT or TT and MTR 2756 AG or GG, Phase I
[20] = MTHFR 677 CT or TT and MTR 2756 AG or GG, Phase II
[21] = MTHFR 677 CT or TT and MTR 2756 AG or GG, Pooled phases
[22] = MTR 2756 AA and MTRR 66 AA and BMI < 30 kg/m^2, Phase II
[23] = MTR 2756 AG or GG and MTRR 66 AG or GG and BMI >= 30 kg/m^2, Phase I
[24] = MTR 2756 AG or GG and MTRR 66 AG or GG and BMI >= 30 kg/m^2, Phase II
[25] = MTR 2756 AG or GG and MTRR 66 AG or GG and BMI >= 30 kg/m^2, Pooled phases

With CN1c2c(nc(N)[nH]c2=O)NC[C@@H]1CNc1ccc(C(=O)N[C@@H](CCC(=O)O)C(=O)O)cc1 [6(S)-5-MTHF, 6(S)-5-methyltetrahydrofolate] the “Pooled Effect Size HAMD-17” value [1] was −7.302, the “Pooled Effect Size HAMD-28” value [1] was −7.572 and the “Pooled Effect Size HAMD-17” value [2] was −5.420. For the same molecule, the “Pooled Effect Size HAMD-28” value [2] was −5.996, the “Pooled Effect Size HAMD-17” value [3] was −8.090 and the “Pooled Effect Size HAMD-28” value [3] was −9.884. The “Pooled Effect Size HAMD-17” value [4] was −10.972, the “Pooled Effect Size HAMD-28” value [4] was −15.347 and the “Pooled Effect Size HAMD-17” value [5] was −11.714. The “Pooled Effect Size HAMD-28” value [5] was −14.433, the “Pooled Effect Size HAMD-17” value (A: BMI > 30, N = 21) was −4.600 and the “Pooled Effect Size HAMD-28” value (A: BMI > 30, N = 21) was −4.660. The “Pooled Effect Size HAMD-17” value [6] was −9.898, the “Pooled Effect Size HAMD-28” value [6] was 9.500 and the “Pooled Effect Size HAMD-17” value [7] was −7.640. The “Pooled Effect Size HAMD-28” value [7] was −11.620, the “Pooled Effect Size HAMD-17” value [8] was −5.583 and the “Pooled Effect Size HAMD-28” value [8] was −11.683. For the same molecule, the “Pooled Effect Size HAMD-17” value [9] was −5.879, the “Pooled Effect Size HAMD-28” value [9] was −6.879 and the “Pooled Effect Size HAMD-17” value (B: LOW SAM/SAH RATIO, N = 18) was −3.622. For the same molecule, the “Pooled Effect Size HAMD-28” value (B: LOW SAM/SAH RATIO, N = 18) was −4.572, the “Pooled Effect Size HAMD-17” value [10] was −9.446 and the “Pooled Effect Size HAMD-28” value [10] was −9.865. For the same molecule, the “Pooled Effect Size HAMD-17” value [11] was −7.942, the “Pooled Effect Size HAMD-28” value [11] was −10.241 and the “Pooled Effect Size HAMD-17” value [12] was −8.072. For the same molecule, the “Pooled Effect Size HAMD-28” value [12] was −9.508, the “Pooled Effect Size HAMD-17” value [13] was −4.850 and the “Pooled Effect Size HAMD-28” value [13] was −6.582. For the same molecule, the “Pooled Effect Size HAMD-17” value (C: HIGH 4-HNE, N = 21) was −4.175, the “Pooled Effect Size HAMD-28” value (C: HIGH 4-HNE, N = 21) was 4.554 and the “Pooled Effect Size HAMD-17” value [14] was −18.710. The “Pooled Effect Size HAMD-28” value [14] was −23.290, the “Pooled Effect Size HAMD-17” value [15] was −6.976 and the “Pooled Effect Size HAMD-28” value [15] was −9.348. The “Pooled Effect Size HAMD-17” value (E: MTR 2756 AG/GG, N = 11) was −5.677, the “Pooled Effect Size HAMD-28” value (E: MTR 2756 AG/GG, N = 11) was −8.243 and the “effect in carriers of both variants relative to the sum of the individual biomarker effects” value (HAMD-28 mean change, MTHFR T + MTR G) was “at least 2 fold”. For the same molecule, the “HAMD-17 change, Effect” value [16] was −0.700, the “HAMD-28 change, Effect” value [16] was −0.192 and the “HAMD-17 change, Effect” value [17] was −0.571. The “HAMD-28 change, Effect” value [17] was 0.048, the “HAMD-17 change, Effect” value [18] was 0.722 and the “HAMD-28 change, Effect” value [18] was 0.711. The “HAMD-17 change, Effect” value [19] was −13.47, the “HAMD-28 change, Effect” value [19] was −18.00 and the “HAMD-17 change, Effect” value [20] was −10.33. For the same molecule, the “HAMD-28 change, Effect” value [20] was −13.00, the “HAMD-17 change, Effect” value [21] was −18.71 and the “HAMD-28 change, Effect” value [21] was −23.29. For the same molecule, the “HAMD-17 change, Effect” value [22] was −4.333, the “HAMD-28 change, Effect” value [22] was −4.667 and the “HAMD-17 change, Effect” value [23] was −13.667. The “HAMD-28 change, Effect” value [23] was −18.833, the “HAMD-17 change, Effect” value [24] was −11.000 and the “HAMD-28 change, Effect” value [24] was −12.000. For the same molecule, the “HAMD-17 change, Effect” value [25] was −10.972, the “HAMD-28 change, Effect” value [25] was −15.347 and the “Pooled Effect Size HAMD-17” value (OVERALL, N = 73) was −2.264. The “Pooled Effect Size HAMD-28” value (OVERALL, N = 73) was −2.738, the “Effect on change in HAMD-17 score” value (Phase I, 25 =< BMI < 30 kg/m^2) was 2.600 and the “Effect on change in HAMD-28 score” value (Phase I, 25 =< BMI < 30 kg/m^2) was 2.602. The “Effect on change in HAMD-17 score” value (Phase I, BMI < 25) was 1.576, the “Effect on change in HAMD-28 score” value (Phase I, BMI < 25) was 0.909 and the “Effect on change in HAMD-17 score” value (Phase I, BMI < 30 kg/m^2 and HNE-His < median) was 3.771.

— patent US9546401B2, “Assays and methods for selecting a treatment regimen for a subject with depression” (The General Hospital Corporation, priority 2011, dated 2017)
